Test results taken from paper PMC8868297, “Stapling of Peptides Potentiates the Antibiotic Treatment of Acinetobacter baumannii In Vivo” (Antibiotics, 2022).
Bridge positions count the residues as written; N and C are the ends. Square brackets hold non-standard residues; d marks the D form. Ends that are not written are not given here. Peptide text beside a SMILES is read from it. R8 = C=CCCCCCC[C@@](C)(N)C(=O)O; S5 = C=CCCC[C@](C)(N)C(=O)O

Experiments:
A. baumannii 1757 = test: MIC / checkerboard synergy assay (also with added LPS); assay type: cell-based, Acinetobacter baumannii; details: mean ± SD; for MIC, + Rd-LPS (F583): LB medium with soluble deep rough LPS 15 µg/ml; for MIC, + Sm-LPS (055:B5): LB medium with soluble smooth LPS 15 µg/ml; for MIC, No supplement: LB medium without supplement (Table S4); for MIC (compound alone): LB broth, MIC = 90% of growth prevented, OD600 over 12 h
Method: (§1) Minimum inhibitory concentrations of the peptides and antibiotics were determined according to the protocol described by Wiegand et al.. Briefly, two-fold dilution series of cationic peptides in 50 µL volume of LB broth containing 2% DMSO were made in polypropylene 96-well microtiter plates (Ratiolab, L6018123, Dreieich, Germany). The optical density at 600 nm (OD600) of growing bacterial cultures was followed, and at mid-log-phase (OD600 ~0.4–0.5) cultures were diluted to OD600 0.02 and 50 µL was added to the wells, resulting in a total volume of 100 µl, an OD600 of ~0.01 and a DMSO concentration of 1%. An OD600 of ~0.01 accounted for approximately 3 × 10^8 colony forming units per mL (CFU/mL) for A. baumannii, 1 × 10^7 CFU/mL for E. coli and 5 × 10^7 CFU/mL for K. pneumoniae as determined by plate counting.
(§2) In a similar manner, two-fold dilution series of antibiotics were made in polystyrene microtiter plates (Costar, REF3779, Corning NY, United States) in 70 µL volume of LB broth. Then, 50 µL of the antibiotic series was transferred to the peptide containing polypropylene plate, resulting in a checkerboard titration of a peptide on the vertical axis and an antibiotic on the horizontal axis. To some checkerboard assays 15 µg/mL isolated smooth (sm) LPS (from E. coli O55:B5, Sigma-Aldrich, L2880), rough (Ra) LPS (from E. coli EH100, Sigma-Aldrich, L9641) or deep rough (Rd) LPS (from E. coli F583, Sigma-Aldrich, L6893) LPS was added to the LB broth. Mid-log phase cultures were diluted to OD600 0.1 and 10 µL culture was added to each well of the microtiter plate, resulting in a total volume of 110 µL and an OD600 of ~0.01 (~3 × 10^8 CFU/mL), and the OD600 was measured every 15 min for 12 h using the microplate reader. First, the MIC values of the antibiotics alone and the MIC values of the peptides alone were determined as described previously. Similarly, the MIC values of the antibiotics in combination with the different peptides and the MIC values of the peptides in combination with the antibiotics were determined (the fractional inhibitory concentrations (FIC)). […] An FICindex between 0.5 and 1 was considered to be an additive effect.

K. pneumoniae 94 = test: MIC / checkerboard synergy assay; assay type: cell-based, Klebsiella pneumoniae; details: compound alone; LB broth, MIC = 90% of growth prevented, OD600 over 12 h; mean ± SD
Method: as §1, §2

K. pneumoniae 613 = test: MIC / checkerboard synergy assay; assay type: cell-based, Klebsiella pneumoniae; details: compound alone; LB broth, MIC = 90% of growth prevented, OD600 over 12 h; mean ± SD
Method: as §1, §2

K. pneumoniae 821 = test: MIC / checkerboard synergy assay; assay type: cell-based, Klebsiella pneumoniae; details: compound alone; LB broth, MIC = 90% of growth prevented, OD600 over 12 h; mean ± SD
Method: as §1, §2

circular dichroism = details: 5 mM sodium phosphate; pH 7.5; 20 °C; 7.5 uM
sheep red blood cells = details: sheep RBCs in DMEM, 1 h, 32 °C, OD405; for hemolysis at 50 µM: relative to 1% Triton-X100, negative control polymyxin B nonapeptide
Method: Defibrinated sheep blood was purchased from BioTrading (LOT 21118SG66, Mijdrecht, The Netherlands) and kept at 4 °C. As previously described by Phan et al., red blood cells (RBCs) were pelleted by centrifugation at 600× g for 7 min at 4 °C and gently resuspended in phenol red-free Dulbecco’s Modified Eagle Medium (DMEM, Gibco 21063-029, ThermoFisher Scientific, Waltham MA, United States). This was repeated five times until the supernatant appeared colorless. In the meantime, 10-fold dilution series of the peptides at 50 μM, 5 μM and 0.5 μM in 50 µl DMEM, 1% DMSO were made in polypropylene microtiter plates (Ratiolab, L6018123, Dreieich, Germany). Triton-X100 (1%, Sigma-Aldrich T-8787) and DMSO (10%, Sigma-Aldrich D-8418) were used as positive and negative controls, respectively. Polymyxin B (Sigma-Aldrich, p-1411) and polymyxin B nonapeptide (Sigma-Aldrich, p-2076) were used as reference lytic and non-lytic peptides. Then, 50 µL of RBCs was added to each well. The plate was sealed and incubated at 5% CO2 for one hour at 32 °C, after which the plate was centrifuged at 610× g for 5 min at room temperature. Next, 70 µL supernatant was removed and transferred to a flat-bottomed polystyrene microtiter plate (Costar, REF3779) and the OD405, as a measure of released hemoglobin, was determined using a microplate reader (Synergy H1 Multi-Mode Reader or Synergy HTX Multi-Mode Reader, BioTek). Percentage of hemolysis was calculated using the following equation: (2) % hemolysis=(absorbance test sample)-(absorbance diluent)/(absorbance positive control)-(absorbance diluent)

zebrafish larvae = test: Toxicity in zebrafish larvae (survival after caudal vein injection); details: survival of uninfected larvae vs vehicle (50% DMSO), five days
Method: Transparent Casper zebrafish (Danio rerio) larvae were infected and treated according to protocols described by Van der Sar et al. and Bernard et al. [43, 44]. In short, zebrafish larvae collected from a laboratory-breeding colony kept at 24 °C and a 12:12 h dark/light regime. Larvae were selected based on morphology according to hours post fertilization (hpf) and kept at 28 °C. All protocols followed the international guidelines on the protection of animals used for scientific purposes specified by the EU Directive 2010/63/EU, which allows zebrafish larvae to be used up to the moment of free-living (5–7 dpf). Larvae were dechorionated at 28 hpf and anaesthetized in 0.2% tricaine methanesulfonate (MS222, Fluka A-5040). Larvae were individually infected with 1 nL, containing approximately 100–150 CFU (1–1.5 CFU/mL), of Gram-negative bacteria via microinjection of the caudal vein as described previously [33]. One hour post infection, larvae were treated with cationic (stapled) peptides, antibiotics or a combination of the two via another microinjection of 1 nL in the caudal vein. To correct dilution of the treatment upon injection in the vein (1 nL in 250 nL zebrafish larvae volume), treatments were diluted in 0.1% phenol red (Sigma-Aldrich, p-0290) in phosphate buffered saline (PBS) to 250 times the concentration as tested in vitro. Zebrafish larvae were kept at 30 °C throughout the experiment and survival of the larvae, based on heartbeat, was determined every 24 h for 5 days.

A. baumannii 2196 = test: MIC / checkerboard synergy assay; assay type: cell-based, Acinetobacter baumannii; details: compound alone; LB broth, MIC = 90% of growth prevented, OD600 over 12 h; mean ± SD
Method: as §1, §2

A. baumannii 1681 = test: MIC / checkerboard synergy assay; assay type: cell-based, Acinetobacter baumannii; details: compound alone; LB broth, MIC = 90% of growth prevented, OD600 over 12 h; mean ± SD
Method: as §1, §2

[1] = normal pooled human serum, 100 µM peptide from 10 mM DMSO stock, 37 °C, samples at 0, 15, 60 min, TCA precipitation, LC-MS TIC vs carbamazepine internal standard, triplicate; Figure 2C
Method: The stability measurements were performed in normal pooled human serum (PHS). The respective peptide was diluted to a final concentration of 100 μM in the aforementioned human serum (from 10 mM peptide stocks in DMSO). Then, 100 μM Carbamazepine was used as an internal standard; 60 μL of aforementioned peptide/Carbamazepine solution in PHS was incubated for 1h at 37 °C/750 rpm and 20 μL samples were taken after 0 min, 15 min and 60 min. Next, 1.5 μL of TCA was added to the sample to precipitate serum proteins. The samples were subsequently incubated on ice for 10 min and then centrifuged (12,000× g, 10 min). Then, 5 μL of supernatant was diluted in 20 μL of H2O/MeCN + 0.1% TFA. The sample was subsequently analyzed by LCMS on an Nucleodur C4-column (Macherey Nagel CC125/4 Nucleodur C4 Gravity, 5 µm) using a linear aqueous MeCN gradient containing FA (0.1%, v/v) and TFA (0.01%, v/v) as ion pair reagent (5–95%, 8 min). Peptides were quantified using the total ion count (TIC) of selected molecular ions. Remaining peptide quantities were calculated by normalizing the peptide peak areas using the internal standard peak areas and subsequently comparing the obtained value with the 0 min measurement. All measurements were performed in triplicate.

Compound	MIC, + Rd-LPS (F583) (A. baumannii 1757) [µM]	MIC, + Ra-LPS (EH100) (A. baumannii 1757; LB medium with soluble rough LPS 15 µg/ml) [µM]	MIC, + Sm-LPS (055:B5) (A. baumannii 1757) [µM]	MIC, No supplement (A. baumannii 1757) [µM]	MIC (compound alone) (A. baumannii 1757) [µM]	MIC (compound alone) (K. pneumoniae 94)	MIC (compound alone) (K. pneumoniae 613)	MIC (compound alone) (K. pneumoniae 821)	helicity (circular dichroism) [%]	hemolysis at 50 µM (sheep red blood cells)	Log2FoldChange compared to vehicle injected (zebrafish larvae)	MIC (compound alone) (A. baumannii 2196)	MIC (compound alone) (A. baumannii 1681)	stability in human serum (in words) [1]	hemolysis in the concentration range tested (in words) (sheep red blood cells; 0.5, 5 and 50 µM)
RRLFRRILRWL-NH2 [Peptide L6]	0.34 ± 0.40	2.50 ± 3.83	9.85 ± 16.34	1.2 ± 0.43	1.1 ± 1.20	0,63±0,29 µM	0,65±0,15 µM	2,44±2,17 µM	15	up to 50%	-0.04	0,91±0,59 µM	0,66±0,13 µM	–	–
CC[C@H](C)[C@@H]1NC(=O)[C@H](CCCNC(=N)N)NC(=O)[C@H](CCC(N)=O)NC(=O)[C@](C)(NC(=O)[C@@H](NC(=O)[C@H](CCCNC(=N)N)NC(=O)[C@@H](N)CCCCN)[C@@H](C)CC)CCCCCCC=CCCC[C@@](C)(C(=O)N[C@@H](CCCNC(=N)N)C(N)=O)NC(=O)[C@H](Cc2c[nH]c3ccccc23)NC(=O)[C@H](CCCCN)NC(=O)[C@H](CCCCN)NC1=O [Peptide L8S3] (H-KRI[R8]QRIKKW[S5]R-NH2; staple 4-11)	–	–	–	–	0.57 ± 0.23	–	–	–	25	significantly more hemolytic to the RBCs than the negative control	-0.08	–	–	highest stabilities	–
CC(C)C[C@H](NC(=O)[C@H](Cc1c[nH]c2ccccc12)NC(=O)[C@H](CCCNC(=N)N)NC(=O)[C@H](CC(C)C)NC(=O)[C@]1(C)CCCC=CCCC[C@](C)(NC(=O)[C@H](CCCNC(=N)N)NC(=O)[C@@H](N)CCCNC(=N)N)C(=O)N[C@@H](Cc2ccccc2)C(=O)N[C@@H](CCCNC(=N)N)C(=O)N[C@@H](CCCNC(=N)N)C(=O)N1)C(N)=O [Peptide L6S1] (H-RR[S5]FRR[S5]LRWL-NH2; staple 3-7)	–	–	–	–	1.80 ± 2.68	–	–	–	28	significantly more hemolytic to the RBCs than the negative control	0.04	–	–	–	–
CC(C)C[C@H](NC(=O)[C@H](CCCNC(=N)N)NC(=O)[C@@H](N)CCCNC(=N)N)C(=O)N[C@@H](Cc1ccccc1)C(=O)N[C@@H](CCCNC(=N)N)C(=O)N[C@@H](CCCNC(=N)N)C(=O)N[C@@]1(C)CCCC=CCCC[C@@](C)(C(N)=O)NC(=O)[C@H](Cc2c[nH]c3ccccc23)NC(=O)[C@H](CCCNC(=N)N)NC(=O)[C@H](CC(C)C)NC1=O [Peptide L6S2] (H-RRLFRR[S5]LRW[S5]-NH2; staple 7-11)	–	–	–	–	0.93 ± 0.69	–	–	–	19	significantly more hemolytic to the RBCs than the negative control	-1.21	–	–	highest stabilities	–
CC(C)C[C@H](NC(=O)[C@H](Cc1c[nH]c2ccccc12)NC(=O)[C@H](CCCCN)NC(=O)[C@H](CCCCN)NC(=O)[C@]1(C)CCCC=CCCC[C@](C)(NC(=O)[C@H](CCCNC(=N)N)NC(=O)[C@@H](N)CCCCN)C(=O)N[C@@H](C(C)C)C(=O)N[C@@H](CCC(N)=O)C(=O)N[C@@H](CCCNC(=N)N)C(=O)N1)C(=O)N[C@@H](CCCNC(=N)N)C(N)=O [Peptide L8S1] (H-KR[S5]VQR[S5]KKWLR-NH2; staple 3-7)	–	–	–	–	12.76 ± 8.91	–	–	–	49	did not cause hemolysis	-0.45	–	–	–	–
KRIVQRIKKWLR-NH2 [Peptide L8]	10.83 ± 8.12	–	0.53 ± 0.59	8.78 ± 11.15	2.53 ± 1.02	165,45±1,91 µM	23,74±29,65 µM	43,37±28,38 µM	16	–	-0.63	8,54±5,31 µM	5,85±0,47 µM	–	did not cause hemolysis
CC[C@H](C)[C@@H]1NC(=O)[C@H](CCCNC(=N)N)NC(=O)[C@H](CCCNC(=N)N)NC(=O)[C@](C)(NC(=O)[C@H](CC(C)C)NC(=O)[C@H](CCCNC(=N)N)NC(=O)[C@@H](N)CCCNC(=N)N)CCCCCCC=CCCC[C@@](C)(C(N)=O)NC(=O)[C@H](Cc2c[nH]c3ccccc23)NC(=O)[C@H](CCCNC(=N)N)NC(=O)[C@H](CC(C)C)NC1=O [Peptide L6S3] (H-RRL[R8]RRILRW[S5]-NH2; staple 4-11)	–	–	–	–	1.47 ± 0.48	–	–	–	23	did not cause hemolysis	-0.40	–	–	–	–
CC[C@H](C)[C@H](NC(=O)[C@H](CCCNC(=N)N)NC(=O)[C@@H](N)CCCCN)C(=O)N[C@H](C(=O)N[C@@H](CCC(N)=O)C(=O)N[C@@H](CCCNC(=N)N)C(=O)N[C@@]1(C)CCCC=CCCC[C@@](C)(C(=O)N[C@@H](CCCNC(=N)N)C(N)=O)NC(=O)[C@H](Cc2c[nH]c3ccccc23)NC(=O)[C@H](CCCCN)NC(=O)[C@H](CCCCN)NC1=O)C(C)C [Peptide L8S2] (H-KRIVQR[S5]KKW[S5]R-NH2; staple 7-11)	–	–	–	–	8.69 ± 4.29	–	–	–	25	did not cause hemolysis	0.11	–	–	–	–
